The nature of series [1]: Aqueous solubility (Multiscreen Solubility filter plates). As to conditions: aqueous buffer, kinetic from dmso stock; pH 7.4, 24 h, 25 °C. It is filed as physicochemical. The procedure: Solubility determinations were carried out on Multiscreen® Solubility filter plates (Millipore-MSSLBPC10) from Millipore Corporation (MA, USA) following the protocol (PC2445EN00) from the manufacturer.

In a further series the test system is HEK293T cells. The series is described as follows: MTS cell proliferation assay on HEK293T cells. The class given is cell-based, human. The conditions noted are these: 10 μM, 48 h and 72 h, vs vehicle control. The procedure: To explore whether the inhibitors are cytotoxic, MTS assay were conducted on BV-2 cells, a murine microglial cell line derived from post-natal mouse cerebella, and HEK293T cells that are derived from human embryonic kidney. Both cell types were treated with 10 μM of 1a, 2g and 2i for 48 h and 72 h (Fig. 3A,B). Dimethyl sulfoxide (DMSO) vehicle control was also included as the compounds were dissolved in DMSO.
Cells were plated on a 96-wells plate and grown for 24 h to a density of 8000 cells per well for both HEK293T and BV-2 cells. Cells were cultured at 37 °C under a 5% CO2 environment in 100 μL of culture medium. Thereafter, the compound of interest dissolved in culture medium at a concentration of 10 μM was replaced into each well. DMSO was added as vehicle in the control group. 3 biological replicates were performed. The plates were then incubated at 37 °C with 5% CO2 for 48 h and 72 h. At each individual time point, 20 μL of CellTiter 96® AQueous One Solution (MTS reagent) was added into each well and re-incubated at 37 °C with 5% CO2 without light for 3 h. Colorimetric readings were taken using a Varioskan plate reader at 490 nm and analyzed. Three independent biological repeats with four technical replicates were performed.
In general terms: Formazan colour is commonly taken as a measure of viable cells.

Series [2] relates to iNOS expression in BV-2 cells. The series is described as follows: iNOS protein expression (western blot) in LPS-stimulated BV-2 cells. It is filed as cell-based, murine. As to conditions: 2 μg/mL LPS, 14 h. From the text:
It is well-established that reactive oxygen species (ROS) and nitric oxide (NO), produced during microglia activation, contribute to inflammatory response and cytotoxic damage to the surrounding neurons and neighbouring cells. Recent studies have shown that BV-2 microglial cell could serve as an in vitro model to mimic such neuroinflammatory states when stimulated with lipopolysaccharide (LPS)[49]. LPS activates BV-2 cells by triggering a cascade of inflammatory events which includes the production of NO. This event is characterized by the generation of the biomarker, inducible nitric oxide synthase (iNOS), as well as ROS. Chuang et al.[50] have also shown that cPLA2 is a major contributor in this pathway and inhibiting this enzyme reduces the production of the neurotoxic mediators and provide neuroprotective effects. Therefore to investigate the ability of 2i in inhibiting cPLA2 in a neuroinflammatory model, BV-2 cells were treated with LPS (2 μg/mL), incubated for different time points, collected and lysed for protein extraction. […] The cPLA2 level was also determined and found to be largely constant throughout the entire activation process with a slight drop at the 24 h timepoint (Fig. 3F). Next, 2i (1, 10 and 20 μM) were incubated together with LPS in the BV-2 cells for 14 h (Fig. 4A,B). […]

Turning to `CCCCC/C=C\C/C=C\C/C=C\C/C=C\CCCCC(=O)Nc1cccc(C(=O)O)c1` [2i], in series [1], the solubility at 24 h was more than 100 µM. For the same compound, in the series with HEK293T cells, the “cytotoxicity (MTS) on HEK293T cells” value is “no significant toxic effects”. In addition, in series [2] (20 µM), the “reduction of LPS-induced iNOS expression” value is listed as 50%. The “iNOS level, concentration dependence” value in series [2] (1–20 μM) is recorded as “dose-dependent decrease in the iNOS level”.

In general, solubility refers to the concentration that dissolves in the medium under given conditions. A higher solubility goes with a readily soluble substance.

The values above are taken from article PMC5651845, “A New Generation of Arachidonic Acid Analogues as Potential Neurological Agent Targeting Cytosolic Phospholipase A2” (Scientific Reports, 2017).
